Assay results reported in ChEMBL document CHEMBL2413072, “Synthesis and in vitro anticancer studies of novel C-2 arylidene congeners of lantadenes” (2013).

Assays:
Type in all cases: functional
[1] = Growth inhibition of human NCI-ADR-RES cells assessed as cell growth at 10^-7 M by sulforhodamine B assay; details: read-out: Activity
OVCAR-5 = assay: Growth inhibition of human OVCAR5 cells assessed as cell growth at 10^-4 M by sulforhodamine B assay; details: read-out: Activity
OVCAR-4 [2] = assay: Growth inhibition of human OVCAR4 cells by sulforhodamine B assay
OVCAR-8 = assay: Growth inhibition of human OVCAR8 cells by sulforhodamine B assay
SW-620 = assay: Growth inhibition of human SW620 cells by sulforhodamine B assay
OVCAR-3 = assay: Growth inhibition of human OVCAR3 cells assessed as cell growth at 10^-6 M by sulforhodamine B assay; details: read-out: Activity
SF-268 = assay: Growth inhibition of human SF268 cells by sulforhodamine B assay
PC-3 = assay: Growth inhibition of human PC3 cells assessed as cell growth at 10^-6 M by sulforhodamine B assay; details: read-out: Activity
HCT-15 = assay: Growth inhibition of human HCT15 cells assessed as cell growth at 10^-6 M by sulforhodamine B assay; details: read-out: Activity
SNB-19 = assay: Growth inhibition of human SNB19 cells assessed as cell growth at 10^-6 M by sulforhodamine B assay; details: read-out: Activity
OVCAR-4 [3] = assay: Growth inhibition of human OVCAR4 cells assessed as cell growth at 10^-6 M by sulforhodamine B assay; details: read-out: Activity
[4] = Growth inhibition of human Hs 578T cells assessed as cell growth at 10^-6 M by sulforhodamine B assay; details: read-out: Activity
SF-295 = assay: Growth inhibition of human SF295 cells by sulforhodamine B assay
M14 = assay: Growth inhibition of human M14 cells assessed as cell growth at 10^-8 M by sulforhodamine B assay; details: read-out: Activity
[5] = read-out: LC50 (the source's name)
[6] = read-out: pLC50 (the source's name) (converted)

## CC(C)=CC(=O)O[C@@H]1CC(C)(C)C[C@H]2C3=CC[C@@H]4[C@@]5(C)CC[C@H](O)C(C)(C)[C@@H]5CC[C@@]4(C)[C@]3(C)CC[C@@]12C(=O)O [Reduced Lantadene B]
[1]
  growth at 0.1 µM: 99%
OVCAR-5
  growth at 100 µM: -51%
OVCAR-4 [2]; read-out: GI50
  GI50: 8.59 µM
OVCAR-4 [2]; [5]
  CC50: > 100 µM
OVCAR-4 [2]; read-out: TGI
  TGI: 35.6 µM
OVCAR-4 [2]; read-out: pGI50 (converted)
  GI50: 8.51 µM
OVCAR-4 [2]; [6]
  CC50: > 100 µM
OVCAR-4 [2]; read-out: pTGI (converted)
  TGI: 35.5 µM
OVCAR-8; read-out: GI50
  GI50: 4.68 µM
OVCAR-8; [5]
  CC50: > 100 µM
OVCAR-8; read-out: TGI
  TGI: 28.9 µM
OVCAR-8; read-out: pGI50 (converted)
  GI50: 4.68 µM
OVCAR-8; [6]
  CC50: > 100 µM
OVCAR-8; read-out: pTGI (converted)
  TGI: 28.8 µM
SW-620; read-out: GI50
  GI50: 5.69 µM
SW-620; [5]
  CC50: > 100 µM
SW-620; read-out: TGI
  TGI: 52.6 µM
SW-620; read-out: pGI50 (converted)
  GI50: 5.75 µM
SW-620; [6]
  CC50: > 100 µM
SW-620; read-out: pTGI (converted)
  TGI: 52.5 µM
OVCAR-3
  growth at 1 µM: 86%
SF-268; read-out: GI50
  GI50: 5.87 µM
SF-268; read-out: LC50
  LC50: 97.2 µM
SF-268; read-out: TGI
  TGI: 26.1 µM
SF-268; read-out: pGI50 (converted)
  GI50: 5.89 µM
SF-268; read-out: pLC50 (converted)
  LC50: 97.7 µM
SF-268; read-out: pTGI (converted)
  TGI: 26.3 µM
PC-3
  growth at 1 µM: 67%
HCT-15
  growth at 1 µM: 58%
SNB-19
  growth at 1 µM: 86%
OVCAR-4 [3]
  growth at 1 µM: 83%
[4]
  growth at 1 µM: 92%
SF-295; read-out: GI50
  GI50: 1.45 µM
SF-295; [5]
  CC50: 52.8 µM
SF-295; read-out: TGI
  TGI: 11.1 µM
SF-295; read-out: pGI50 (converted)
  GI50: 1.45 µM
SF-295; [6]
  CC50: 52.5 µM
SF-295; read-out: pTGI (converted)
  TGI: 11.2 µM
M14
  growth at 0.01 µM: 94%
